From patent publication US20230241178A1, “LONG ACTING GLP-1/GIP DUAL AGONISTS” (SUN PHARMACEUTICAL INDUSTRIES LIMITED, priority 2020, published 2023)
Marks after values point to notes of the source that are not given here. Numbered stars: 1 amine (or outer) side, 2 acyl side, 3 side chain; on linkers, the order of the positions; unused ones are H or OH. Square brackets hold non-standard residues; d marks the D form. Primed or numbered codes have the meaning given here. Ends that are not written are not given here. dSer(OMe) = COC[C@@H](N[*:1])C(=O)[*:2]; Moiety B″ = not defined here; Aib = CC(C)(N)C(=O)O

Key:
[1] = test system: type 2 diabetic mouse (db/db) model; test: Reduction in blood glucose and effect on body weight and food intake, single dose, db/db mice (Tables 4, 5); type: in vivo; conditions: for Delta Blood Glucose (mM), Mean: @ 3 nM s.c.
Description: The effect of Compounds of present invention on blood glucose was studied on mice. This study was performed in a type 2 diabetic mouse (db/db) model. […] Baseline blood glucose was measured from all the animals. All animals were administered with its respective test item subcutaneously. […] Delta blood glucose (mM) was calculated. Similarly body weight changes and cumulative food consumption was measured at 96 hr post treatment.

[2] = test system: type 2 diabetic mouse (db/db) model; test: Effect on blood glucose, food intake and body weight, single s.c. dose 10 nM/kg, db/db mice (Tables 8, 9); type: in vivo; conditions: 10 nM/kg/s.c/single dose
Description: This study was performed in a type 2 diabetic mouse (db/db) model. […] Baseline blood glucose was measured from all the animals. All the animals were administered with test items subcutaneously. Blood glucose was measured at 4 hr, 12 hr, 24 hr, 48 hr, 72 hr and 96 hr post treatment. Delta blood glucose (mM) was calculated. Body weight changes and cumulative food consumption was measured at 96 hr post treatment. Similarly the effect of Compounds 11-15 on blood glucose, food intake and body weight was studied in a separate study except for Compound 13. The results are shown in Table 8 (effect on blood glucose) and Table 9 (effect on body weight and food consumption).

[3] = test system: type 2 diabetic mouse (db/db) model; test: Reduction of HbA1c in db/db type 2 diabetic mice after chronic treatment (HbA1c, insulin, triglycerides, food consumption, body weight); type: in vivo; conditions: for Cumulative Food Consumption Day 0-28 / Insulin / Triglycerides / Δ% HbA1c vs. DC / Body Weight (%) Day 28 vs. Baseline: db/db mice
Description: This study was performed in a type 2 diabetic mouse (db/db) model. […] All the treatments were injected subcutaneously every third day for 10 doses (q3d*10). % HbA1c, Insulin, Triglycerides levels were measured on Day 0, day 14 and day 28. Cumulative food intake from day 0-28 and % Change in body weight compared to day 0 was calculated on day 28.

[4] = test system: type 2 diabetic mouse (db/db) model; test: Effect of Compound 2 and 7 on blood glucose, body weight and food consumption in mice, up to 72 hr (Tables 6, 7); type: in vivo; conditions: 90 nM/kg; mice, n = 8
Description: Similarly body weight changes and cumulative food consumption was measured at 72 hr post treatment.

[5] = target: glucagon-like peptide-1 receptor (GLP-1R) (UniProt P43220 24-463, limits assumed); test: cell-based or functional assay
GIP-receptor (GIPR) = target: T1, GIP-receptor (GIPR) (UniProt P48546 22-466, limits assumed); test: cell-based or functional assay
T1 sequence (looked up): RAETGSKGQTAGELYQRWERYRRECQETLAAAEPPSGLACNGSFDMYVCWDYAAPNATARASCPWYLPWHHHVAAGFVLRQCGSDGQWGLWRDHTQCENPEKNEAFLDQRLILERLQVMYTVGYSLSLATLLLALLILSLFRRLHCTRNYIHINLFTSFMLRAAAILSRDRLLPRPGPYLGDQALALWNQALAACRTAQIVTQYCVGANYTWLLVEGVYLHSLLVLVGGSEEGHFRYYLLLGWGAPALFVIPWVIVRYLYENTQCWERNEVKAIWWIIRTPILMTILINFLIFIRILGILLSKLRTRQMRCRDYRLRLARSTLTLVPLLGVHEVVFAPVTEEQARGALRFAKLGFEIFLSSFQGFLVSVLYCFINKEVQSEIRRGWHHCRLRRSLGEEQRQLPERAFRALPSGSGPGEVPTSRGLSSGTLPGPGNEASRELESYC

[6] = 59 nM/kg s.c., separate study n = 5

## Compound 3: Seq ID: 06 polypeptide, Lys acylated with Moiety B (Y[dSer(OMe)]EGTFTSDYSI[Aib]LDKIAQK(Moiety B″)AFVQWLIAGGPSSGAPPPS-NH2; reading uncertain)
[1]; 3 nM/kg s.c., n = 6 study
  Cumulative Food Intake (g) 0-96 hr, Mean: 21.9 g
  Body Weight Change (%) 96 hr., Mean: −2.5*** %
[1]; 4 hr post treatment, n = 6 study
  Delta Blood Glucose (mM), Mean: -9.2 mM
[1]; 12 hr post treatment, n = 6 study
  Delta Blood Glucose (mM), Mean: -2.9 mM
[1]; 24 hr post treatment, n = 6 study
  Delta Blood Glucose (mM), Mean: 1.6 mM
[1]; 48 hr post treatment, n = 6 study
  Delta Blood Glucose (mM), Mean: 0.7 mM
[1]; 72 hr post treatment, n = 6 study
  Delta Blood Glucose (mM), Mean: 2 mM
[1]; 96 hr post treatment, n = 6 study
  Delta Blood Glucose (mM), Mean: 2.1 mM

## Compound 11: Seq ID: 11 polypeptide, Lys acylated with Moiety B (YXEGTFTSDYSIXLDKIAQKAFVQWLIAGGPSSGAPPPSR; (2)..(2) Xaa = Aib (2-Aminoisobutyric acid); (13)..(13) Xaa = Aib (2-Aminoisobutyric acid); (20)..(20) Side chain amino (Epsilon amino) group of Lys is substituted)
[2]; 0 hr (baseline)
  Delta Blood Glucose (mM), Mean: 0.0 mM
[2]
  Body Wt. Change (%) 96 hr. vs. Baseline, Mean: −4.5*** %
  Cumulative food Intake (g) 96 hr. vs. Baseline, Mean: 14.1*** g
  blood glucose reduction post treatment (in words): statistically significant blood glucose reduction
[2]; 4 hr post treatment
  Delta Blood Glucose (mM), Mean: −10.5*** mM
[2]; 12 hr post treatment
  Delta Blood Glucose (mM), Mean: −11.2*** mM
[2]; 24 hr post treatment
  Delta Blood Glucose (mM), Mean: −14.6*** mM
[2]; 48 hr post treatment
  Delta Blood Glucose (mM), Mean: −6.4*** mM
[2]; 72 hr post treatment
  Delta Blood Glucose (mM), Mean: −2.9*** mM
[2]; 96 hr post treatment
  Delta Blood Glucose (mM), Mean: 1.1 mM

## Compound 12: Seq ID: 11 polypeptide, Lys acylated with Moiety C (YXEGTFTSDYSIXLDKIAQKAFVQWLIAGGPSSGAPPPSR; (2)..(2) Xaa = Aib (2-Aminoisobutyric acid); (13)..(13) Xaa = Aib (2-Aminoisobutyric acid); (20)..(20) Side chain amino (Epsilon amino) group of Lys is substituted)
[2]; 0 hr (baseline)
  Delta Blood Glucose (mM), Mean: 0.0 mM
[2]
  Body Wt. Change (%) 96 hr. vs. Baseline, Mean: −3.1** %
  Cumulative food Intake (g) 96 hr. vs. Baseline, Mean: 15.2*** g
[2]; 4 hr post treatment
  Delta Blood Glucose (mM), Mean: −14.2*** mM
[2]; 12 hr post treatment
  Delta Blood Glucose (mM), Mean: −13.0*** mM
[2]; 24 hr post treatment
  Delta Blood Glucose (mM), Mean: −8.0*** mM
[2]; 48 hr post treatment
  Delta Blood Glucose (mM), Mean: −5.5* mM
[2]; 72 hr post treatment
  Delta Blood Glucose (mM), Mean: -2.9 mM
[2]; 96 hr post treatment
  Delta Blood Glucose (mM), Mean: 1.7 mM

## Compound 16: Seq ID: 11 polypeptide, Lys acylated with Moiety D (YXEGTFTSDYSIXLDKIAQKAFVQWLIAGGPSSGAPPPSR; (2)..(2) Xaa = Aib (2-Aminoisobutyric acid); (13)..(13) Xaa = Aib (2-Aminoisobutyric acid); (20)..(20) Side chain amino (Epsilon amino) group of Lys is substituted)
[2]; 0 hr (baseline)
  Delta Blood Glucose (mM), Mean: 0.0 mM
[2]; 4 hr post treatment
  Delta Blood Glucose (mM), Mean: −14.4*** mM
[2]; 12 hr post treatment
  Delta Blood Glucose (mM), Mean: −12.1*** mM
[2]; 24 hr post treatment
  Delta Blood Glucose (mM), Mean: −10.8*** mM
[2]; 48 hr post treatment
  Delta Blood Glucose (mM), Mean: −4.9** mM
[2]; 72 hr post treatment
  Delta Blood Glucose (mM), Mean: 0.8 mM
[2]; 96 hr post treatment
  Delta Blood Glucose (mM), Mean: 0.7* mM

## Tirzepatide [reference compound]
[3]; 180 nM/kg dose
  improvement in HbA1c reduction from day 14 to day 28 (in words): minimal improvement in HbA1c reduction
[3]; 90 nM/kg s.c. q3d*10
  Cumulative Food Consumption Day 0-28: 119.1
[3]; 180 nM/kg s.c. q3d*10
  Cumulative Food Consumption Day 0-28: 90.1
[3]; Day 14, 90 nM/kg s.c. q3d*10
  Insulin: 65.23 ng/mL
  Triglycerides: 168.7 mg/dL
  Δ% HbA1c vs. DC: −2.63*** %
[3]; Day 14, 180 nM/kg s.c. q3d*10
  Insulin: 71.77 ng/mL
  Triglycerides: 143.4 mg/dL
  Δ% HbA1c vs. DC: −3.50*** %
[3]; Day 28, 90 nM/kg s.c. q3d*10
  Body Weight (%) Day 28 vs. Baseline: −0.9%
  Insulin: 52.32 ng/mL
  Triglycerides: 167.4 mg/dL
  Δ% HbA1c vs. DC: −3.43*** %
[3]; Day 28, 180 nM/kg s.c. q3d*10
  Body Weight (%) Day 28 vs. Baseline: −6.8%
  Insulin: 60.19 ng/mL
  Triglycerides: 141.3 mg/dL
  Δ% HbA1c vs. DC: −3.74*** %
[1]; 10 nM/kg s.c., n = 6 study
  Cumulative Food Intake (g) 0-96 hr, Mean: 13.3*** g
  Body Weight Change (%) 96 hr., Mean: −3.4*** %
[1]; [6]
  Cumulative Food Intake (g) 0-96 hr, Mean: 15.9 g
  Body Weight Change (%) 96 hr., Mean: −2.8** %
[4]
  % Body wt. change 72 hr. vs. 0 hr., Mean: −6.7*** %
  Cumulative Food Consumption (0-72 hr) (g), Mean: 8.1** g

B1: Compound 2 (peptide)
peptide: YXEGTFTSDYSIXLDKIAQKAFVQWLIAGGPSSGAPPPS
modifications: Aib at positions 2 and 13; side chain epsilon-amino group of Lys 20 acylated with Moiety B (U-W-Y-Z with W = -C(O)-C(CH3)2-NH-, i.e. 2-[2-(2-aminoethoxy)ethoxy]acetyl-Aib-gammaGlu-C20 diacid); C-terminal primary amide (Ser-NH2)
[5]
  Tirzepatide/Compound 2 ratio of half-maximal effective concentrations, cellular cAMP assay: 1.68 ratio
GIP-receptor (GIPR)
  Tirzepatide/Compound 2 ratio of half-maximal effective concentrations, cellular cAMP assay: 0.81 ratio
